Measurements taken from ChEMBL document CHEMBL1914411, “Synthesis of lipophilic dimeric C-7/C-7-linked ciprofloxacin and C-6/C-6-linked levofloxacin derivatives. Versatile in vitro biological evaluations of monomeric and dimeric fluoroquinolone derivatives as potential antitumor, antibacterial or antimycobacterial agents” (Eur J Med Chem, 2011).
Converted amounts (≈) assume the structure as drawn. The source made the active and inactive calls.

What was measured:
Escherichia coli = assay: Antimicrobial activity against Escherichia coli CIP 53126 after 18 to 24 hrs by broth microdilution method; assay type: functional
[1] = test system: Mycobacterium tuberculosis; assay: Antimycobacterial activity against Mycobacterium tuberculosis H37Rv assessed as growth inhibition at 0.1 uM after 6 days by MTT colorimetric microassay; assay type: functional, organism-based
Staphylococcus aureus [2] = assay: Antimicrobial activity against methicillin-resistant Staphylococcus aureus ATCC 33591 after 18 to 24 hrs by broth microdilution method; assay type: functional
Staphylococcus aureus [3] = assay: Antimicrobial activity against Staphylococcus aureus CIP 4.83 after 18 to 24 hrs by broth microdilution method; assay type: functional
Enterococcus hirae = assay: Antimicrobial activity against Enterococcus hirae CIP 5855 after 18 to 24 hrs by broth microdilution method; assay type: functional
Staphylococcus aureus [4] = assay: Antimicrobial activity against multidrug-resistant Staphylococcus aureus isolate 1 after 18 to 24 hrs by broth microdilution method; assay type: functional
[5] = Antiproliferative activity against human U373MG cells after 120 hrs by MTT asasy; assay type: functional, cell-based, U-373MG ATCC; settings: U373 MG
Staphylococcus aureus [6] = assay: Antimicrobial activity against methicillin-resistant Staphylococcus aureus ATCC 33592 after 18 to 24 hrs by broth microdilution method; assay type: functional
Staphylococcus aureus [7] = assay: Antimicrobial activity against multidrug-resistant Staphylococcus aureus isolate 2 after 18 to 24 hrs by broth microdilution method; assay type: functional
Pseudomonas aeruginosa = assay: Antimicrobial activity against Pseudomonas aeruginosa CIP 82.118 after 18 to 24 hrs by broth microdilution method; assay type: functional
[8] = test system: Mycobacterium tuberculosis; assay: Antimycobacterial activity against Mycobacterium tuberculosis H37Rv assessed as growth inhibition at 10 uM after 6 days by MTT colorimetric microassay; assay type: functional; settings: 144 h, read-out: GI
[9] = test system: Mycobacterium tuberculosis; assay: Antimycobacterial activity against Mycobacterium tuberculosis H37Rv after 6 days by MTT colorimetric microassay; assay type: functional, organism-based; settings: 144 h
[10] = test system: Mycobacterium tuberculosis; assay: Antimycobacterial activity against Mycobacterium tuberculosis H37Rv assessed as growth inhibition at 1 uM after 6 days by MTT colorimetric microassay; assay type: functional; settings: for inhibition of growth at 1 µM: 144 h, read-out: GI
Staphylococcus aureus [11] = assay: Ratio of ciprofloxacin MIC to compound MIC for multidrug-resistant Staphylococcus aureus isolate 1; assay type: functional
Staphylococcus aureus [12] = assay: Ratio of ciprofloxacin MIC to compound MIC for multidrug-resistant Staphylococcus aureus isolate 2; assay type: functional

SMILES | MBC (Escherichia coli) | MIC (Escherichia coli) | growth inhibition (GI) [1] | MBC (Staphylococcus aureus [3]) | MIC (Staphylococcus aureus [3]) | MBC (Enterococcus hirae) | MIC (Enterococcus hirae) | IC50 [5] | MBC (Pseudomonas aeruginosa) | MIC (Pseudomonas aeruginosa) | inhibition of growth at 10 µM [8] | MIC [9] | inhibition of growth at 1 µM [10] | IC50 [9] | also measured
CCCCCCCCCCCC(=O)OCC(=O)N1CCN(c2cc3c(cc2F)c(=O)c(C(=O)O)cn3C2CC2)CC1 | 250 µM (≈ 143 µg/mL) | 125 µM (≈ 71.5 µg/mL) | inactive | ≤ 0.97 µM | ≤ 0.97 µM | 7.8 µM (≈ 4.46 µg/mL) | 7.8 µM (≈ 4.46 µg/mL) | 49 µM | 250 µM (≈ 143 µg/mL) | 62.5 µM (≈ 35.7 µg/mL) | > 95% |  |  |  | MBC (Staphylococcus aureus [2]): 3.9 µM (≈ 2.23 µg/mL); MIC (Staphylococcus aureus [2]): 1.9 µM (≈ 1.09 µg/mL); MBC (Staphylococcus aureus [4]): 500 µM (≈ 286 µg/mL); MIC (Staphylococcus aureus [4]): 125 µM (≈ 71.5 µg/mL); MBC (Staphylococcus aureus [6]): 0.97 µM (≈ 0.555 µg/mL); MIC (Staphylococcus aureus [6]): 0.06 µM (≈ 0.0343 µg/mL); MBC (Staphylococcus aureus [7]): 250 µM (≈ 143 µg/mL); MIC (Staphylococcus aureus [7]): 62.5 µM (≈ 35.7 µg/mL)
CCCCCCCCCCCCCNC(=O)c1cn2c3c(c(N4CCN(C)CC4)c(F)cc3c1=O)OC[C@@H]2C |  |  | inactive |  |  |  |  |  |  |  | > 95% | > 10 µM | 5% |  | 
CCCCCC(=O)OCC(=O)N1CCN(c2cc3c(cc2F)c(=O)c(C(=O)O)cn3C2CC2)CC1 | 31.2 µM (≈ 15.2 µg/mL) | 31.2 µM (≈ 15.2 µg/mL) | inactive | ≤ 0.24 µM | ≤ 0.03 µM | ≤ 0.97 µM | ≤ 0.97 µM |  | 250 µM (≈ 122 µg/mL) | 62.5 µM (≈ 30.5 µg/mL) | > 95% |  |  |  | MBC (Staphylococcus aureus [2]): 0.06 µM (≈ 0.0293 µg/mL); MIC (Staphylococcus aureus [2]): 0.03 µM (≈ 0.0146 µg/mL); MBC (Staphylococcus aureus [4]): 500 µM (≈ 244 µg/mL); MIC (Staphylococcus aureus [4]): 15.6 µM (≈ 7.61 µg/mL); Ratio (Staphylococcus aureus [11]): 2; MBC (Staphylococcus aureus [7]): 15.6 µM (≈ 7.61 µg/mL); MIC (Staphylococcus aureus [7]): 7.8 µM (≈ 3.8 µg/mL); Ratio (Staphylococcus aureus [12]): 2
CCCCCCCCNC(=O)c1cn2c3c(c(N4CCN(C)CC4)c(F)cc3c1=O)OC[C@@H]2C | 500 µM (≈ 236 µg/mL) | 125 µM (≈ 59.1 µg/mL) | inactive | 31.2 µM (≈ 14.7 µg/mL) | 31.2 µM (≈ 14.7 µg/mL) | 31.2 µM (≈ 14.7 µg/mL) | 31.2 µM (≈ 14.7 µg/mL) | 2.3 µM | 250 µM (≈ 118 µg/mL) | 31.2 µM (≈ 14.7 µg/mL) | > 95% |  |  |  | 
CCCCCCCCCCCCCCCC(=O)OCOC(=O)c1cn2c3c(c(N4CCN(C)CC4)c(F)cc3c1=O)OC[C@@H]2C |  |  | inactive |  |  |  |  |  |  |  |  |  |  |  | growth inhibition (GI) [10]: inactive
CCCCCCCCCCCC(=O)OCOC(=O)c1cn2c3c(c(N4CCN(C)CC4)c(F)cc3c1=O)OC[C@@H]2C | 3.9 µM (≈ 2.24 µg/mL) | 3.9 µM (≈ 2.24 µg/mL) | inactive | ≤ 0.97 µM | ≤ 0.97 µM | 1.9 µM (≈ 1.09 µg/mL) | 1.9 µM (≈ 1.09 µg/mL) | 0.2 µM | 3.9 µM (≈ 2.24 µg/mL) | ≤ 0.97 µM | > 95% | 2.5 µM (≈ 1.43 µg/mL) | 74% | 1.3 µM | 
CCCCCCCCCCCCCC(=O)OCOC(=O)c1cn2c3c(c(N4CCN(C)CC4)c(F)cc3c1=O)OC[C@@H]2C | 15.6 µM (≈ 9.39 µg/mL) | 15.6 µM (≈ 9.39 µg/mL) | inactive | 3.9 µM (≈ 2.35 µg/mL) | 7.8 µM (≈ 4.69 µg/mL) | 15.6 µM (≈ 9.39 µg/mL) | 15.6 µM (≈ 9.39 µg/mL) |  | 250 µM (≈ 150 µg/mL) | 62.5 µM (≈ 37.6 µg/mL) | > 95% | 2.5 µM (≈ 1.5 µg/mL) |  | 1.3 µM | 
CCCCCCCC(=O)OCOC(=O)c1cn2c3c(c(N4CCN(C)CC4)c(F)cc3c1=O)OC[C@@H]2C |  |  | inactive |  |  |  |  |  |  |  | > 95% | 2.5 µM (≈ 1.29 µg/mL) | 74% | 1.3 µM | 
CCCCCCCCCCCCCCCNC(=O)c1cn2c3c(c(N4CCN(C)CC4)c(F)cc3c1=O)OC[C@@H]2C | 500 µM (≈ 285 µg/mL) | 125 µM (≈ 71.3 µg/mL) | inactive | 15.6 µM (≈ 8.9 µg/mL) | 15.6 µM (≈ 8.9 µg/mL) | 7.8 µM (≈ 4.45 µg/mL) | 7.8 µM (≈ 4.45 µg/mL) |  | 250 µM (≈ 143 µg/mL) | 62.5 µM (≈ 35.7 µg/mL) | > 95% | 10 µM (≈ 5.71 µg/mL) | 5% | 6.5 µM | 
CCCCCCCCCCCCCCCCCCCC(=O)OCOC(=O)c1cn2c3c(c(N4CCN(C)CC4)c(F)cc3c1=O)OC[C@@H]2C |  |  | inactive |  |  |  |  |  |  |  |  |  |  |  | growth inhibition (GI) [10]: inactive
